This note sets out measurements from US20230167127A1, “COMPOUNDS AND THEIR USE IN THE TREATMENT OF BACTERIAL INFECTION” (Hoffmann-La Roche Inc., priority 2020, published 2023).

The test deals with Escherichia coli ATCC 25922. Nature of the test: 50% growth inhibitory concentration (IC50) determination, Iso-Sensitest broth dilution. As to conditions: Escherichia coli, ATCC25922, 16 h, strain Escherichia coli ATCC 25922; 10-point broth dilution, optical density at 600 nm over 16 h; read-out: Escherichia coli growth inhibition IC50. The format is cell-based. As for the experimental part: 50% Growth Inhibitory Concentration (IC50) Determination
The in vitro antimicrobial activity of the compounds was determined according to the following procedure:
The assay used a 10-point Iso-Sensitest broth dilution method to measure quantitatively the in vitro
ATCC 25922, Acinetobacter baumannii ATCC 17961, Klebsiella pneumoniae ATCC 43816 and Staphylococcus aureus ATCC 29213.
Stock compounds in DMSO were serially twofold diluted (e.g. range from 50 to 0.097 μM final concentration) in 384 wells microtiter plates and inoculated with 50 μL of the bacterial suspension in Iso-
ell of 50 μL/well. Microtiter plates were incubated at 35±2° C.
Bacterial cell growth was determined with the measurement of optical density at λ=600 nm each 20 minutes over a time course of 16 h.
Growth inhibition was calculated during the logarithmic growth of the bacterial cells with
Table 1 provides the 50% growth inhibitory concentrations (IC50) in micromoles per liter of the compounds of present invention obtained against the strain Escherichia coli ATCC 25922.
Turning to `O=C1COc2ccc(N3CC(CCCNC4Cc5ccccc5C4)OC3=O)nc2N1` (stereo not shown) [Example 9, 6-[5-[3-(2,3-dihydro-1H-inden-2-ylamino)propyl]-2-oxo-1,3-oxazolidin-3-yl]-4H-pyrido[3,2-b][1,4]oxazin-3-one; formic acid], the IC50 is 439 nM. With `Cc1nc(OCC2CNC(=O)CO2)c(C)c2c1CC(CNCCC1CN(c3ccc4c(n3)NC(=O)CO4)C(=O)O1)C2` (stereo not shown) [Example 101, 6-[5-[2-[[1,4-dimethyl-3-[(5-oxomorpholin-2-yl)methoxy]-6,7-dihydro-5H-cyclopenta[c]pyridin-6-yl]methylamino]ethyl]-2-oxo-1,3-oxazolidin-3-yl]-4H-pyrido[3,2-b][1,4]oxazin-3-one] the figure was 1390 nM; with `Cc1c(OCC(=O)NC(C)C)ncc2c1CC(CNCCC1CN(c3ccc4c(n3)NC(=O)CO4)C(=O)O1)C2` (stereo not shown) [Example 224, N-isopropyl-2-((4-methyl-6-(((2-(2-oxo-3-(3-oxo-3,4-dihydro-2H-pyrido[3,2-b][1,4]oxazin-6-yl)oxazolidin-5-yl)ethyl)amino)methyl)-6,7-dihydro-5H-cyclopenta[c]pyridin-3-yl)oxy)acetamide], 791 nM; with `N#Cc1cccc2c1CC(CN(CCN)CCC1CN(c3ccc4c(n3)NC(=O)CO4)C(=O)O1)C2` (stereo not shown) [Example 233, 2-[[2-Aminoethyl-[2-[2-oxo-3-(3-oxo-4H-pyrido[3,2-b][1,4]oxazin-6-yl)-1,3-oxazolidin-5-yl]ethyl]amino]methyl]-2,3-dihydro-1H-indene-4-carbonitrile; formic acid], 942 nM.

In the case of `N#Cc1cc(OCc2cnn[nH]2)cc2c1CC(CNCCC1CN(c3cnc4c(n3)NC(=O)CO4)C(=O)O1)C2` (stereo not shown) [Example 425, 2-[[2-[2-Oxo-3-(3-oxo-4H-pyrazino[2,3-b][1,4]oxazin-6-yl)-1,3-oxazolidin-5-yl]ethylamino]methyl]-6-(1N-triazol-5-ylmethoxy)-2,3-dihydro-1H-indene-4-carbonitrile], the IC50 was 102 nM. As for `CS(=O)(=O)NCCOc1cc(F)c2c(c1)CC(CNCCC1CN(c3cnc4c(n3)NC(=O)CO4)C(=O)O1)C2` (stereo not shown) [Example 324, N-[2-[[7-fluoro-2-[[2-[2-oxo-3-(3-oxo-4H-pyrazino[2,3-b][1,4]oxazin-6-yl)-1,3-oxazolidin-5-yl]ethylamino]methyl]-2,3-dihydro-1H-inden-5-yl]oxy]ethyl]methanesulfonamide], the IC50 stood at 205 nM.

In the case of `NCCOc1cc(Cl)c2c(c1)CC(NCCCC1CN(c3ccc4c(n3)NC(=O)CO4)C(=O)O1)C2` (stereo not shown) [Example 179, 6-[5-[3-[[6-(2-aminoethoxy)-4-chloro-2,3-dihydro-1H-inden-2-yl]amino]propyl]-2-oxo-1,3-oxazolidin-3-yl]-4H-pyrido[3,2-b][1,4]oxazin-3-one], the IC50 was determined as 103 nM. For `NC1(COc2cc(F)c3c(c2)CC(CNCCC2CN(c4ccc5c(n4)NC(=O)CO5)C(=O)O2)C3)COC1` (stereo not shown) [Example 162, 6-[5-[2-[[6-[(3-aminooxetan-3-yl)methoxy]-4-fluoro-2,3-dihydro-1H-inden-2-yl]methylamino]ethyl]-2-oxo-1,3-oxazolidin-3-yl]-4H-pyrido[3,2-b][1,4]oxazin-3-one; formic acid] the value was 195 nM; for `Cc1cnc(C)c2c1CC(CNCCC1CN(c3cnc4c(n3)NC(=O)CO4)C(=O)O1)C2` (stereo not shown) [Example 268, 6-[5-[2-[(1,4-Dimethyl-6,7-dihydro-5H-cyclopenta[c]pyridin-6-yl)methylamino]ethyl]-2-oxo-1,3-oxazolidin-3-yl]-4H-pyrazino[2,3-b][1,4]oxazin-3-one], less than 97.7 nM; for `O=C1COc2ccc(N3CC(CCNCC4Cc5c(ccnc5Cl)C4O)OC3=O)nc2N1` (racemic) [Example 41, 6-[2-oxo-5-[2-[[rac-(5,6-trans)-1-chloro-5-hydroxy-6,7-dihydro-5H-cyclopenta[c]pyridin-6-yl]methylamino]ethyl]-1,3-oxazolidin-3-yl]-4H-pyrido[3,2-b][1,4]oxazin-3-one; formic acid], 728 nM.

`N#Cc1cccc2c1CC(CNCCc1nn(-c3ccc4c(c3)NC(=O)CO4)c(=O)o1)C2` (stereo not shown) [Example 42, 2-[[2-[5-oxo-4-(3-oxo-4H-1,4-benzoxazin-6-yl)-1,3,4-oxadiazol-2-yl]ethylamino]methyl]-2,3-dihydro-1H-indene-4-carbonitrile; formic acid]: the IC50 was found to be 158 nM. With `CNc1cc2c(c(C)n1)CC(CNCCC1CN(c3ccc4c(n3)NC(=O)CO4)C(=O)O1)C2` (stereo not shown) [Example 420, 6-[5-[2-[[1-Methyl-3-(methylamino)-6,7-dihydro-5H-cyclopenta[c]pyridin-6-yl]methylamino]ethyl]-2-oxo-1,3-oxazolidin-3-yl]-4H-pyrido[3,2-b][1,4]oxazin-3-one] the figure was 196 nM; with `N#Cc1cccc2c1CC(CCN1CC3(C1)CN(c1ccc4c(n1)NC(=O)CO4)C(=O)O3)C2` (stereo not shown) [Example 33, 2-[2-[6-oxo-7-(3-oxo-4H-pyrido[3,2-b][1,4]oxazin-6-yl)-5-oxa-2,7-diazaspiro[3.4]octan-2-yl]ethyl]-2,3-dihydro-1H-indene-4-carbonitrile], less than 97.7 nM; with `O=C1COc2ccc(N3CC(NCCNC4Cc5cccc(F)c5C4)CC3=O)nc2N1` (stereo not shown) [Example 120, 6-[4-[2-[(4-fluoro-2,3-dihydro-1H-inden-2-yl)amino]ethylamino]-2-oxopyrrolidin-1-yl]-4H-pyrido[3,2-b][1,4]oxazin-3-one; formic acid], 440 nM. With `Cc1nccc2c1CC(CNCCC1CN(c3cnc4c(n3)NC(=O)CO4)C(=O)O1)C2` (stereo not shown) [Example 279, 6-[5-[2-[(1-methyl-6,7-dihydro-5H-cyclopenta[c]pyridin-6-yl)methylamino]ethyl]-2-oxo-1,3-oxazolidin-3-yl]-4H-pyrazino [2,3-b][1,4]oxazin-3-one; formic acid] the figure was less than 97.7 nM. For the compound `Cc1ncc2c(c1F)CC(CNCC[C@@H]1CN(c3cnc4c(n3)NC(=O)CO4)C(=O)O1)C2` (stereo partly drawn) [Example 339, 6-[(5R)-5-[2-[(4-fluoro-3-methyl-6,7-dihydro-5H-cyclopenta[c]pyridin-6-yl)methylamino]ethyl]-2-oxo-1,3-oxazolidin-3-yl]-4H-pyrazino[2,3-b][1,4]oxazin-3-one], the IC50 was determined as 145 nM. As for `Cc1nc2c(c3c1CC(CNCCC1CN(c4ccc5c(n4)NC(=O)CO5)C(=O)O1)C3)CCN2` (stereo not shown) [Example 423, 6-[5-[2-[(8-Methyl-5,7-diazatricyclo[7.3.0.0^2.6]dodeca-1,6,8-trien-11-yl)methylamino]ethyl]-2-oxo-1,3-oxazolidin-3-yl]-4H-pyrido[3,2-b][1,4]oxazin-3-one], the IC50 came to 468 nM.

With `CC(C)(CC1CN(c2ccc3c(n2)NC(=O)CO3)C(=O)O1)NCC1Cc2ccnc(Cl)c2C1` (stereo not shown) [Example 30, 6-[5-[2-[(1-chloro-6,7-dihydro-5H-cyclopenta[c]pyridin-6-yl)methylamino]-2-methylpropyl]-2-oxo-1,3-oxazolidin-3-yl]-4H-pyrido[3,2-b][1,4]oxazin-3-one; formic acid], the IC50 was 3400 nM. With `CC(N)COc1cc(C#N)c2c(c1)CC(CNCCC1CN(c3cnc4c(n3)NC(=O)CO4)C(=O)O1)C2` (stereo not shown) [Example 193, 6-(2-aminopropoxy)-2-(((2-(2-oxo-3-(3-oxo-3,4-dihydro-2H-pyrazine[2,3-b][1,4]oxazin-6-yl)oxazolidin-5-yl)ethyl)amino)methyl)-2,3-dihydro-1H-indene-4-carbonitrile; 2,2,2-trifluoroacetic acid] the figure was less than 97.7 nM.

Broadly, the IC50 is the midpoint of a concentration-inhibition curve.
